Test results published in US20140342392A1, “OPTIMIZED INSECT-BASED EX VIVO MODEL FOR TESTING BLOOD-BRAIN BARRIER PENETRATION AND METHOD FOR EXPOSING INSECT BRAIN TO CHEMICAL COMPOUNDS” (ENTOMOPHARM ApS, priority 2011, published 2014).

Test system: locust brain (blood-brain barrier)
Details: co-treatment with verapamil, brain removed from the cuticula, also after removal of the neural lamella
Experimental: 1. […] The insects may be obtained from local suppliers or bred in house. The grasshoppers were reared under crowded conditions at 28° C. and a 12:12 dark:light photocycle and fed fresh grass and bran. Before experiments the grasshoppers were fed ecologically cultivated wheat for two weeks. Animals used are adult males (in some experiments females) between two to four weeks after adult emergence. […] After various times of exposure the preparation is washed in saline and the brain is dissected under microscope with fine forceps. The neural lamella surrounding the brain is removed in saline and the brain is then […] in saline, centrifuged and the supernatant frozen until analyses. Drug concentration is analysed by HPLC, LC/MSMS or other methods.

## C=C[C@H]1C[N@@]2CC[C@H]1C[C@@H]2[C@@H](O)c1ccnc2ccc(OC)cc12 [quinidine]
  brain concentration with versus without Pgp inhibitor (FIG. 2): higher after co-treatment with the Pgp inhibitor verapamil
